The conditions of data set [1]: background statement on known alkaloids; result in words; cited from earlier work.
For data set [2], the system named is Gardner lymphosarcoma (GLS). Nature of the data set: anti-tumor activity against transplanted Gardner lymphosarcoma (GLS) in mice. In kind it is in vivo. Conditions: intraperitoneal. Here is the method:
(§1) The compounds of this invention, as represented by Formula II above, are anti-tumor agents. […] For this determination, a protocol was used which involved the administration of the drug by the intraperitoneal route at a given dose level for 7-10 days after innoculation with the tumor or alternatively, on the first, fifth, and ninth days after innoculation.
(§2) The following table--Table 1--give the results of several experiments in which transplanted tumors in mice were treated successfully with a compound of this invention.
(§3) In the table, column 1 gives the name of the compound; column 2, the transplanted tumor; column 3, the dose level or dose level range and the number of days the dosage was administered; and column 4, the percent inhibition of tumor growth or percent prolongation of survival time, e.g., B16. (GLS is an abbreviation for Gardner lymphosarcoma; CA755 is an adenocarcinoma; and B16 is a melanoma.).

The test system of data set [3] is B16 melanoma. Nature of the data set: anti-tumor activity against transplanted B16 melanoma in mice (prolongation of survival time). Conditions: B16, intraperitoneal; for toxic: 9.0 mg./kg. × 3 days. It is filed as in vivo. Here is the method: as §1, §2, §3
In data set [4] the test system is Chinese hamster ovary cells. Nature of the data set: mitotic inhibition in Chinese hamster ovary cells. In kind it is cell-based. An excerpt:
The compounds of this invention are mitotic inhibitors in Chinese hamster ovary cells.

In data set [5] the test system is CA755 adenocarcinoma. Nature of the data set: anti-tumor activity against transplanted adenocarcinoma 755 (CA755) in mice. Conditions: 755, intraperitoneal, 3.0 mg./kg. × 10 days. In kind it is in vivo. Here is the method:
as §1, §2, §3

The source of these data is US4195022A, “4-Desacetoxy-4α-hydroxyvinblastine and related compounds” (Eli Lilly and Company, priority 1978, dated 1980).

Counter-ions that a name gives are not always drawn.

As to leurosine N-oxide [pleurosine], the anti-cancer activity result in data set [1] was “loss of anti-cancer activity”.
As for `CC[C@]1(O)C[C@@H]2CN(CCc3c([nH]c4ccccc34)[C@@](C(=O)OC)(c3cc4c(cc3OC)N(C=O)[C@H]3[C@@](O)(C(=O)OC)[C@@H](O)[C@]5(CC)C=CCN6CC[C@]43[C@@H]65)C2)C1` [4-Desacetoxy-4α-hydroxy-vincristine sulfate], the “Percent Inhibition of tumor growth” value in data set [2] (1.5 mg./kg. × 10 days, day 7) was 36%; in data set [2] (1.5 mg./kg. × 10 days, day 11), 29%; in data set [2] (3.0 mg./kg. × 10 days, day 7), 100%; in data set [2] (3.0 mg./kg. × 10 days, day 11) it was 100%; in data set [2] (6.0 mg./kg. × 10 days, day 7), 100%. The toxic result in data set [2] (6.0 mg./kg. × 10 days) is “toxic”.
With `CC[C@]1(O)C[C@@H]2CN(CCc3c([nH]c4ccccc34)[C@@](C(=O)OC)(c3cc4c(cc3OC)N(C)[C@H]3[C@@](O)(C(=O)OC)[C@@H](O)[C@]5(CC)C=CCN6CC[C@]43[C@@H]65)C2)C1` [4-Desacetoxy-4α-hydroxy-vinblastine, 4-Desacetoxy-4α-hydroxyvinblastine], the “Percent Inhibition of tumor growth” value was 35% in data set [2] (1.5 mg./kg. × 10 days, day 7); 25% in data set [2] (1.5 mg./kg. × 10 days, day 11); 91% in data set [2] (3.0 mg./kg. × 10 days, day 7); 78% in data set [2] (3.0 mg./kg. × 10 days, day 11); 100% in data set [2] (6.0 mg./kg. × 10 days, day 7); 38% in data set [5]. In addition, the toxic result in data set [2] (6.0 mg./kg. × 10 days) and in data set [3] was “toxic” each time. Further, the “Percent Prolongation of Survival Time” value in data set [3] (3.0 mg./kg. × 3 days) is reported as 65%; in data set [3] (6.0 mg./kg. × 3 days), 90%. In addition, the minimal effective concentration in data set [4] (Cricetulus griseus, read-out: mitotic inhibition, activity as low as) was found to be 0.01 µg/mL. Further, the “mitotic inhibition compared with vinblastine sulfate or 4-desacetylvinblastine” value in data set [4] (result in words) was “roughly corresponding to that seen with either vinblastine sulfate or with 4-desacetylvinblastine”.
As to `CC[C@]1(O)C[C@@H]2CN(CCc3c([nH]c4ccccc34)[C@@](C(=O)OC)(c3cc4c(cc3OC)N(C)[C@H]3[C@@](O)(C(=O)NN)[C@@H](O)[C@]5(CC)C=CCN6CC[C@]43[C@@H]65)C2)C1` [4-Desacetoxy-4α-hydroxyvinblastine C-3 carboxhydrazide], the “Percent Inhibition of tumor growth” value in data set [2] (1.5 mg./kg. × 10 days, day 7) is recorded as 97%; in data set [2] (1.5 mg./kg. × 10 days, day 11), 98%; in data set [2] (3.0 mg./kg. × 10 days, day 7), 100%; in data set [2] (3.0 mg./kg. × 10 days, day 11), 100%. Besides, the toxic result in data set [2] (6.0 mg./kg. × 10 days) and in data set [3] was “toxic” each time. For the same molecule, the entries for the “Percent Prolongation of Survival Time” value in data set [3] (3.0 mg./kg. × 3 days) and in data set [3] (6.0 mg./kg. × 3 days) were 67% and 121%, respectively.
On to `CCC(=O)C[C@@H]1CN(C=O)CCc2c([nH]c3ccccc23)[C@@](C(=O)OC)(c2cc3c(cc2OC)N(C)[C@H]2[C@](O)(C(=O)OC)[C@H](OC(C)=O)[C@]4(CC)C=CCN5CC[C@]32[C@@H]54)C1` [vinamidine], for which, in data set [1], the anti-cancer activity entry is “chemotherapeutically-inactive”.
